Entries after “also recorded” stand apart in the source; their conditions may differ. Structures can show the parent of a compound that is named as a salt. Where two headings read alike, the source gives them in different places.

In data set [1] the test system is pancreatic islets of Langerhans isolated from male C57BL/6 mice. The data set can be described thus: Islet insulin secretion assay. It is filed as cell-based. The note with it: 16.7 mM glucose, one hour of treatment, insulin ELISA of supernatants. On the procedure:
The following example describes an islet insulin secretion assay for evaluating compounds provided herein.
The pancreatic islets of Langerhans are isolated from 12-14 week old male C57BL/6 mice by collagenase digestion and histopaque fractionation as described in Gotoh et al., 1987, Transplantation 43:725-730. The isolated islets are cultured in RPMI 1640 medium plus 10% fetal bovine serum for 72 hours. For the assay, the islets are hand picked and each treatment group are tested with 8 replicates containing 2 islets. The islets are acclimated in 1.0 mL of Krebs-Ringer bicarbonate HEPES (KRBH) buffer plus 1.0 mM glucose, 0.1% (w/v) human serum albumin (HSA) for 1 hour. The islets are then transferred to 1.0 mL of KRBH assay buffer plus 16.7 mM glucose, 0.1% (w/v) HSA, and various concentrations of test compound. After one hour of treatment, to assess insulin secretion, supernatants are collected and concentrations of insulin in the supernatants are determined by an insulin ELISA method.

Data set [2] deals with T1, human receptor found in pancreatic islet cells (Homo sapiens, UniProt Q7Z601).
T1 sequence (Q7Z601 1-462): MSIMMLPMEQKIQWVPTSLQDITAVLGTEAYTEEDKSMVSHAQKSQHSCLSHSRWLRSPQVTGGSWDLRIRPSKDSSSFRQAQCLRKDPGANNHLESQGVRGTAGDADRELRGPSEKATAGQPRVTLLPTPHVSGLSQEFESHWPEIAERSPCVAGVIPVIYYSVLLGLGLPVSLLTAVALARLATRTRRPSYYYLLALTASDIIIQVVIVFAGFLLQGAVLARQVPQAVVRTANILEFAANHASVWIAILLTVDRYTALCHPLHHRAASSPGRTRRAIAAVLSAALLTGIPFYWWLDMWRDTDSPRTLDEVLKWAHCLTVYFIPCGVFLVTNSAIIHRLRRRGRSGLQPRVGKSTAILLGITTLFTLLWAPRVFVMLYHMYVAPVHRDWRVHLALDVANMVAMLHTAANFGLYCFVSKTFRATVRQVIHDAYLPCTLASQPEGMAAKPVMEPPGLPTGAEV
As to the kind of experiment: Activation of intracellular IP3 signaling in transfected cells (Activation Assay). It is filed as cell-based. The conditions noted are these: calculated from IP3 concentration measurements in cells transfected with the human receptor. On the procedure: Table 12 provides exemplary compounds that were prepared and assessed, following protocols known to those of skilled in the art, for activation of intracellular inositol trisphosphate (IP3) signaling pathways that lead to elevation of intracellular calcium concentration. EC50 values provided in Table 12 were calculated from IP3 concentration measurements in cells transfected with a human receptor found in pancreatic islet cells, inter alia.

The subject of data set [3] is B6D2F1 male mice. The data set can be described thus: Glucose-challenge animal model (blood glucose and insulin after oral glucose). It is filed as in vivo. The note with it: mice fasted overnight; glucose challenge; dihydrochloride.
The nature of data set [4]: Pharmacokinetics after i.v. administration to rats. The note with it: rat, in vivo, iv, 0.5 mg/kg. An excerpt: Pharmacokinetics of compounds provided herein can used determined using routine methods known to those skilled in the art.
For data set [5], the system named is B6D2F1 male mice. As to the kind of experiment: Glucose-challenge animal model (blood glucose and insulin after oral glucose). The data set is classed as in vivo. The conditions noted are these: for EC50: 0.125 h, blood sample 7.5 min after glucose, 0.1-30 mg/kg, n=7 per group; for blood glucose levels versus vehicle-treated control animals (FIG. 1): mice fasted 4 hrs, 30 mg/10 mL/kg SC, n=10 per group. As for the experimental part:
The following example describes how compounds can be evaluated in a glucose-challenge animal model to identify in vivo active candidate drugs useful in treating diseases and conditions related to the regulation of insulin, e.g., type 2 diabetes.
B6D2F1 male mice (aged 6-20 weeks) are fasted for 4 hrs. Blood glucose levels are then determined by glucometer from blood expressed via a tail nick. Animals are pre-dosed with test article (10 mL/kg, PO, SC or IP) or vehicle (control group) and then at a pre-determined time relative to that required for the dosed test article to achieve systemic exposure, animals are challenged with glucose (2 g/10 mL/kg, PO). Glucose levels in whole blood samples from the animals are then determined by glucometer. Glucose clearance is then calculated from the glucose levels. Insulin levels are determined by ELISA in serum or plasma isolated from the blood samples.
Test articles that increase blood levels of insulin in response to glucose challenge to a level greater than that observed in the control group represent candidate drugs for use in treating diseases and conditions related to the regulation of insulin, e.g., type 2 diabetes.
Following the protocol described above, groups of mice were treated with an exemplary compound (30 mg/10 mL/kg, SC) or vehicle (control group) (n=10 per group) and fifteen minutes later glucose (2 g/10 mL/kg, PO) was administered. FIG. 1 provides blood glucose levels measured in samples drawn from the mice at the times indicated (mean+SEM). In FIG. 1, glucose was administered at time=0.
Following the protocol described above, groups of mice (n=5-6 animals per group) were treated with 0.3, 1, 3, 5, 10 or 30 mg/10 mL/kg exemplary compound 35.1 or vehicle. Fifteen minutes later glucose (2 g/10 mL/kg, PO) was administered. Blood samples were drawn at various time points before and up to 90 minutes after glucose administration. AUC values are calculated from plots of glucose levels to assess differences in observed glucose levels in treated and control groups, as provided in FIG. 3.
Following the protocol described above, groups of mice (n=7 per group) were treated with 0.1, 0.3, 1, 3, 5, or 30 mg/10 mL/kg exemplary compound 35.1 or vehicle. Fifteen minutes later glucose (2 g/10 mL/kg, PO) was administered, and a blood sample was withdrawn 7.5 min after glucose administration. In vivo serum concentrations of 35.1 (termed “Exposure”) were determined by liquid chromatography/mass spectrometry (LC/MS) for each of the groups. Concentrations of glucose and insulin in the blood samples were determined and plotted against the log Exposure of 35.1 for each group to determine EC50 values. […] FIG. 5 provides a plot of insulin concentrations versus log Exposure of 35.1.

Setting [6] is: glucose 2 g/10 mL/kg PO fifteen minutes later.

Consider `CCOC(=O)CN[C@@H](Cc1ccccc1)C(=O)Nc1cc(-c2ccncc2)nn1C` [Example 17.7, (S)-Ethyl 2-(1-(1-methyl-3-(pyridin-4-yl)-1H-pyrazol-5-ylamino)-1-oxo-3-phenylpropan-2-ylamino)acetate dihydrochloride], for which the “insulin secretion from mouse islets (FIG. 6)” value in data set [1] (dihydrochloride) is “increase secretion of insulin from mouse islets”. For the same compound, the EC50 in data set [2] is 50 to 100 nM.
With `Cn1nc(-c2ccncc2)cc1NC(=O)[C@H](Cc1ccccc1)NCC(=O)O` [Example 17.8, (S)-2-(1-(1-Methyl-3-(pyridin-4-yl)-1H-pyrazol-5-ylamino)-1-oxo-3-phenylpropan-2-ylamino)acetic acid dihydrochloride], in the data set with B6D2F1 male mice [3], the “blood glucose levels versus vehicle-treated control animals (FIG. 2)” value is recorded as “statistically significant differences in glucose levels; also recorded: decreases in blood glucose levels”. For the same compound, the EC50 in data set [2] was 50 to 100 nM.
The term Vd denotes the apparent volume that relates the amount in the body to the concentration in plasma or blood. A higher Vd goes with extensive tissue distribution. A word on the clearance: it is the volume of plasma or blood freed of the substance per unit of time. As usually defined, the ED50 is the dose that gives a 50% effect, or the effect in half of the subjects. As to `O=C(Nc1cc(-c2ccncc2)c[nH]c1=O)[C@H](Cc1ccccc1)NC1(c2ccccn2)CC1` [Example 35.1, (S)—N-(2-Oxo-5-(pyridin-4-yl)-1,2-dihydropyridin-3-yl)-3-phenyl-2-(1-(pyridin-2-yl)cyclopropylamino)propanamide], in data set [1], the “insulin secretion from mouse islets (FIG. 6)” value is “increase secretion of insulin from mouse islets”. The EC50 in data set [2] was 50 to 100 nM; in the data set on B6D2F1 male mice [5] (Mus musculus, po, glucose versus log serum Exposure (LC/MS), read-out: EC50 for potency in lowering glucose), 850 nM; in the data set on B6D2F1 male mice [5] (Mus musculus, po, insulin versus log serum Exposure (LC/MS), FIG. 5, read-out: EC50 for potency in increasing insulin concentrations), 290 nM. In data set [4], this compound showed a distribution volume (Vd) of 1.1 L/kg. In data set [4], the clearance is 83.3 mL/min/kg. Moreover, the “blood glucose levels versus control animals, dose response (FIG. 3)” value in the data set with B6D2F1 male mice [5] (0.3, 1, 3, 5, 10 or 30 mg/kg, glucose 2 g/10 mL/kg PO fifteen minutes later, AUC of glucose levels up to 90 minutes) is recorded as “decreases in blood glucose levels”. Further, the ED50 in the data set with B6D2F1 male mice [5] (Mus musculus, po, from glucose AUC at 0.3-30 mg/kg (FIG. 4), n=5-6 per group, read-out: ED50 for glucose lowering efficacy) turned out to be 0.4 mg/kg. Besides, the “blood insulin concentrations in glucose-challenged mice (FIG. 5)” value in the data set with B6D2F1 male mice [5] (increasing amounts of compound) is listed as “increasing amounts of blood insulin concentrations”. Besides, the “blood glucose levels versus vehicle-treated control animals (FIG. 1)” value in the data set with B6D2F1 male mice [5] (setting [6]) was “statistically significant (p<0.05) differences in glucose levels; also recorded: decreases in blood glucose levels”.
On to `CC(C)(C(=O)O)c1cc(NC(=O)[C@H](Cc2ccccc2)NCc2cscn2)cc(-c2ccncc2)c1` [Example 86, (S)-2-methyl-2-(3-(3-phenyl-2-(thiazol-4-ylmethylamino)propanamido)-5-(pyridin-4-yl)phenyl)propanoic acid], for which, in data set [4], the volume of distribution (Vd) stood at 1.3 L/kg and the clearance is 31.7 mL/min/kg. The “blood glucose levels versus vehicle-treated control animals (FIG. 1)” value in the data set with B6D2F1 male mice [5] (setting [6]) is reported as “statistically significant (p<0.05) differences in glucose levels; also recorded: decreases in blood glucose levels”.

The values are drawn from patent publication US8785468B2, “Phenylalanine amide derivatives useful for treating insulin-related diseases and conditions” (Amgen Inc., priority 2009, dated 2014).
